Experimental data reported in US20210196607A1 (HESED BIO CO., LTD., priority 2017, published 2021).

Experiments:
tyrosinase [1] = test: Tyrosinase protein and mRNA amount in MSH-treated B16F10 cells; format: cell-based, mouse
Text: Antibodies were purchased from respective manufacturers. Tyrosinase, 14-3-3ζ, LAMIN B (Santa Cruz), MITF (Abcam), phospho-MITF (Sigma), ERK, phospho-ERK (Cell Signaling), ACTIN (MPBIO), and GAPDH (Bethyl) were used.
(§1) Total RNA was extracted from each group of cells using a TRI reagent (Molecular Research Center). Extracted RNA was reverse transcribed using an ImProm™ Reverse Transcription System (Promega), followed by measurement using a StepOnePlus™ Real-Time PCR System (Applied Biosystems).

[2] = system: heat shock protein 70 (HSP70); test: Expression of heat shock protein 70 under heat stress; format: cell-based, mouse; conditions: B16F10 cells
Method: Total protein was extracted from the cells using a THE buffer, and then the amount thereof was measured using a Bradford reagent. In addition, proteins were separated by SDS-PAGE and identified using antibodies, followed by quantitative analysis. Antibodies were purchased from respective manufacturers, and HSP70 (Santa Cruz) and actin (MPBIO) were used.
as §1

tyrosinase [3] = molecular target: T1, tyrosinase (Mus musculus, UniProt P11344); test: Degree of tyrosinase activity at cellular level; format: cell-based; conditions: B16F10 cells
T1 construct: The obtained cells were disrupted and then centrifuged to separate a supernatant; endogenous in cells; host or cells: B16F10 mouse melanoma cells, stimulated with melanocyte stimulating hormone
T1 sequence (P11344 19-533): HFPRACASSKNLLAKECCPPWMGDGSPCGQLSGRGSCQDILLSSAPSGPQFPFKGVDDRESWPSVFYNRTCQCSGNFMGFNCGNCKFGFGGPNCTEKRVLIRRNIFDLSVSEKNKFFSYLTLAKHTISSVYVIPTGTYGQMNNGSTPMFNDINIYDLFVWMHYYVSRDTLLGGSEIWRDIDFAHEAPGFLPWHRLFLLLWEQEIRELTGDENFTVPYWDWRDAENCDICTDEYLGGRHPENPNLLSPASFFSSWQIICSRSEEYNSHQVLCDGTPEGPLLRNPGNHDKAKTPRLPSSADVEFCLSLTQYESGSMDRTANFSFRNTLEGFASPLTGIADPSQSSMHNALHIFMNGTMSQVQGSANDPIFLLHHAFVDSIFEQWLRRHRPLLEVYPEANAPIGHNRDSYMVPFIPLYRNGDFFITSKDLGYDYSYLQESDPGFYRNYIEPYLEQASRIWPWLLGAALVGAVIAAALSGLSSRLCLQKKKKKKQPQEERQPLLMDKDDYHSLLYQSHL
Method: B16F10 mouse melanoma cells were seeded into a 6-well cell culture plate at a density of 1×10^5/well. […] The obtained cells were disrupted and then centrifuged to separate a supernatant. The protein concentration of the supernatant was measured, and 50 μg of protein per sample was standardized into a volume of 50 μl and placed on a 96-well plate. Then, 100 μl of 0.1% L-DOPA was added as a reaction substrate to each sample and allowed to react at 37° C. for 1 hour, and then absorbance at 475 nm was measured.

[4] = system: B16F10 mouse melanoma cells; test: Measuring amount of melanin; format: cell-based
Method: B16F10 mouse melanoma cells were seeded into a 6-well cell culture plate at a density of 1×10^5/well. […] The obtained cells were disrupted and then centrifuged to obtain a cell precipitate, and 1 N NaOH containing 10% DMSO was added thereto. Thereafter, the resulting precipitate was allowed to react at 60° C. for 1 hour, and absorbance at 405 nm was measured.

cells = test: Cytotoxicity experiment (MTT experiment); format: cell-based
Method: 1-1: Cell Culture HEK 293A and B16F10 cells used, Dulbecco's Modified Eagle's Medium (DMEM) containing 10% fetal bovine serum and 1% penicillin/streptomycin as a nutrient source, and were incubated in an incubator maintained at 37° C. under 5% CO2.
This is an experiment for measuring the number of living cells through conversion of 3-(4,5-dimethyl-thiazol-2-yl)-2,5-diphenyl tetrazolium bromide (MTT) into formazan with a purple color, by reduction in cells. Cells were seeded into a 96-well cell culture plate at a density of 3×10^3. […] Thereafter, the culture medium was removed, and a solvent for dissolving crystallized formazan was added to dissolve the sample, and the absorbance at 570 nm of the dissolved sample was measured.

[5] = system: estrogen receptor signaling pathway; test: mRNA of estrogen receptor target genes; format: cell-based; conditions: HEK 293A cells (FIG. 5D)
Text: as §1

[6] = molecular target: T2, ERα ligand-binding domain (Homo sapiens, UniProt P03372); test: Estrogen receptor reporter (GAL4 luciferase) experiment; format: cell-based
T2 construct: expressed in transfected cells; host or cells: HEK 293A cells
Method: To deliver a DNA plasmid into HEK 293A cells, a microporator (Invitrogen/Neon® Transfection System) was used. At one time, 1 μg of a reporter plasmid was delivered into 1 million cells. The DNA-delivered cells were cultured in a general culture medium. The activities of Renilla and Firefly luciferases were measured using a Dual-Luciferase® Reporter Assay System (Promega). To measure the activity of an estrogen receptor (ER) reporter, a system, in which, when a specific material binds to the ER ligand domain, GAL4 binds to a specific DNA sequence, resulting in expression of the Firefly luciferase, was used, and the Renilla luciferase was delivered together to calibrate DNA transfer efficiency. The activity of the estrogen receptor reporter was determined by dividing a value of the Firefly luciferase by a value of the Renilla luciferase. […] When HEK 293A cells to which reporter DNAs were delivered were treated with 50 μM of the extract, the expression of the luciferases was nearly 3.5 times higher than that of the control (see FIG. 5B).

[7] = 100 nM melanocyte stimulating hormone for 48 hours
[8] = increasing amount of 8-methoxybutin (FIG. 2D)

T2 sequence (P03372 311-547 limits assumed): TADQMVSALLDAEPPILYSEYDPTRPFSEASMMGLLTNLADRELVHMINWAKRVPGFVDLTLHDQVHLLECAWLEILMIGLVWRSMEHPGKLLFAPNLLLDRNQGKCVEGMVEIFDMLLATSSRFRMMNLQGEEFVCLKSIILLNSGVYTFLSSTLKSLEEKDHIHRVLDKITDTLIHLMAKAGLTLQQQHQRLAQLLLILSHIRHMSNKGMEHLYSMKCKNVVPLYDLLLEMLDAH
T2 sequence (P04386 1-147 partner limits assumed): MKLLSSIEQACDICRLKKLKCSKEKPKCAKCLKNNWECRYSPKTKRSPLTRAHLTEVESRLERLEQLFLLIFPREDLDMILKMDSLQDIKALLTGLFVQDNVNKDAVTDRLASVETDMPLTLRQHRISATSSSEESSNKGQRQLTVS

For `COc1c(O)ccc2c1OC(c1ccc(O)c(O)c1)CC2=O` (centres unmarked) [8-methoxybutin, 2-(3,4-dihydroxyphenyl)-7-hydroxy-8-methoxy-2,3-dihydro-4H-1-benzopyran-4-one], the “amount of tyrosinase protein” value (tyrosinase [1]; B16F10 cells treated with melanocyte stimulating hormone (FIG. 2B)) was “remarkable decrease”, the “tyrosinase mRNA level” value (tyrosinase [1]; B16F10 cells treated with melanocyte stimulating hormone (FIG. 2C)) was “confirmed at an mRNA level” and the “amount of tyrosinase protein with increasing amount of compound” value (tyrosinase [1]; B16F10 cells, increasing amount of 8-methoxybutin (FIG. 2E)) was “reduced in proportion to the amount of 8-methoxybutin”. For the same compound, the “amount of heat shock protein 70 mRNA compared to the control” value ([2]; heat stress (FIG. 3B)) was “larger amount”, the “amount of heat shock protein 70 (HSP70) compared to a control” value ([2]; heat-applied condition 42° C. for 1 hour, DMSO control (FIG. 3A)) was “increased at least three times” and the “decrease in tyrosinase activity” value (tyrosinase [3]; [7]) was at least 110%. For the same compound, the “tyrosinase activity with increasing amount of compound” value (tyrosinase [3]; [8]) was “in proportion to the amount of 8-methoxybutin”, the “decrease in melanin synthesis amount” value [4, 7] was at least 50% and the “melanin synthesis with increasing amount of compound” value [4, 8] was “in proportion to the amount of 8-methoxybutin”. The cell survival rate (cells; 24 hours treatment, high as well as low concentration) was “about 100%”, the cytotoxicity (cells; high concentration, 100 μM) was “cytotoxicity was hardly observed” and the “amount of mRNA of target genes” value [5] was “increased”. The “expression of the luciferases relative to the control” value ([6]; HEK 293A cells with reporter DNAs, 50 μM (FIG. 5B)) was about 3.5 times and the “expression of luciferases depending on concentration” value ([6]; HEK 293A cells, concentration increased from 10 μM (FIG. 5C)) was “statistically significant increase”.
